# Results taken from ChEMBL document CHEMBL1158843, “Development of a radiochemical cyclooxygenase-1 and -2 in vitro assay for identification of natural products as inhibitors of prostaglandin biosynthesis” (J Nat Prod, 1998).
# pIC50: −log10 of the molar value.
# How the values were obtained:
# [1] = target: T1, Prostaglandin G/H synthase 1 (Bos taurus, UniProt O62664); experiment: Inhibition of bovine seminal microsomal COX1 assessed as PGE2 production preincubated for 10 mins
# T1 sequence (O62664 whole entry): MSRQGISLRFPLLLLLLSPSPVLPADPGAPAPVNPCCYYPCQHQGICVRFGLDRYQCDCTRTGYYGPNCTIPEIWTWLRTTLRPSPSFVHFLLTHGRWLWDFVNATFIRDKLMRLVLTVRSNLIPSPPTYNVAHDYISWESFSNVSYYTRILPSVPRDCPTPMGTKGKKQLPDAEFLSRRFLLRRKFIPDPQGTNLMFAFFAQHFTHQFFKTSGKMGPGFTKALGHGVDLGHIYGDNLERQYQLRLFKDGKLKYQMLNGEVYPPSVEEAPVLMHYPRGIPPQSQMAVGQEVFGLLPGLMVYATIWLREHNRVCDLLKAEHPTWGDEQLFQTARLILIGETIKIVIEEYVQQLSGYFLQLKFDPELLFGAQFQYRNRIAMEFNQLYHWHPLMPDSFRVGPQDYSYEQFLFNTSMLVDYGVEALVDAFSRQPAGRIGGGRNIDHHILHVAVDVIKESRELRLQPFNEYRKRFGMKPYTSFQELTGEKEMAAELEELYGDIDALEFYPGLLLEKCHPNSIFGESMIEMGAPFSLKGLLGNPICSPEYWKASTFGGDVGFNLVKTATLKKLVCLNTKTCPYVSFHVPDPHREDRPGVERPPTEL
# [2] = target: T1, Prostaglandin G/H synthase 1; experiment: Inhibition of bovine seminal microsomal COX1 assessed as PGE2 production
SMILES,pIC50 [1],pIC50 [2]
Oc1cc(O)c2c(c1)O[C@H](c1ccc(O)c(O)c1)[C@@H](O)C2 [CIANIDANOL],3.55,3.74
C[C@@H]1O[C@@H](Oc2c(-c3ccc(O)c(O)c3)oc3cc(O)cc(O)c3c2=O)[C@H](O)[C@H](O)[C@H]1O [QUERCITRIN],< 2.70,< 2.70
